IC50 data for nine compounds are collected here from patent US12410208B2, “(2-acetamidyl)thio-beta-D-galactopyranoside derivatives” (Idorsia Pharmaceuticals Ltd, priority 2020, dated 2025).

Like-named read-outs stand apart in the source and are kept apart here.

Test [1] deals with biotinylated human Gal-3 (hGal-3) (Homo sapiens, UniProt P17931). The test is described as follows: Competitive binding assay: biotinylated hGal-3 binding to microplate-adsorbed asialofetuin (ASF), spectrophotometric. Put shortly: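 Competitive binding of biotinylated hGal-3 to plate-adsorbed asialofetuin was measured with serially diluted compounds over 3 h at 4° C. Bound protein was detected with streptavidin-peroxidase and ABTS substrate by absorbance. IC50 values are means of several measurements.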
Chain of biotinylated human Gal-3 (hGal-3) (P17931 whole entry): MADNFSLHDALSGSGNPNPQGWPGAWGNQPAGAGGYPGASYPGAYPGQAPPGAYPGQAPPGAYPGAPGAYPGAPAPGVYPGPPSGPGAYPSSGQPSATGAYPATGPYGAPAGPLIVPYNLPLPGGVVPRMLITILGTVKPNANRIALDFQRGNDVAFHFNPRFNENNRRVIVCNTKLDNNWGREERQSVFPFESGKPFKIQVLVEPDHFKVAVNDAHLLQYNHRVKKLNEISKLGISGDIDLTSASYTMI

The target in another test is human Gal-1 (hGal-1) (Homo sapiens, UniProt P09382). Briefly: Competitive binding assay: biotinylated hGal-1 binding to microplate-adsorbed asialofetuin (ASF), spectrophotometric. The conditions noted are these: hGal-1 binding to asialofetuin; Table 15; R and S epimers of selected Examples also listed; read-out: IC50 (Galectin-1 inhibition). In a few lines:
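Biotinylated hGal-1 (300-1000 ng/mL) incubated with compound on asialofetuin-coated plates 3 hours at 4 °C, washed, then streptavidin-peroxidase (80 ng/mL) 1 hour at 4 °C. ABTS substrate read spectrophotometrically; IC50 reported as mean of several measurements.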

[2] abbreviates: Table 11, hGal-3, read-out: IC50 (Gal-3 inhibition).
The mark [3] stands for this setting: Gal-3 inhibition, Table 4, read-out: IC50.

Chain of human Gal-1 (hGal-1) (P09382 whole entry): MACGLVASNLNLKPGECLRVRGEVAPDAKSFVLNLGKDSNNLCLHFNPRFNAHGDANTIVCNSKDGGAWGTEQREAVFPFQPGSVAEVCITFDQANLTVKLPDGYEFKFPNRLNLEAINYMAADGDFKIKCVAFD

Consider `CN(CC(C)(C)C)C(=O)[C@@H](S[C@@H]1O[C@H](CO)[C@H](O)[C@H](n2cc(-c3cc(F)c(F)c(F)c3)nn2)[C@H]1O)C1(O)CCC1` [Example 2.34.228S., (S)-2-(((2S,3R,4S,5R,6R)-3,5-Dihydroxy-6-(hydroxymethyl)-4-(4-(3,4,5-trifluorophenyl)-1H-1,2,3-triazol-1-yl)tetrahydro-2H-pyran-2-yl)thio)-2-(1-hydroxycyclobutyl)-N-methyl-N-neopentylacetamide], for which the IC50 came to 0.12 µM in test [1] (Gal-3 inhibition, Table 5, read-out: IC50) and 0.09 µM at human Gal-1 (hGal-1).

In the case of `CCN(C)C(=O)C(S[C@@H]1O[C@H](CO)[C@H](O)[C@H](n2cc(-c3cc(F)cc(Cl)c3)nn2)[C@H]1O)C1(O)CCOCC1` (stereo partly drawn) [Example 13.41.203., 2-(((2S,3R,4S,5R,6R)-4-(4-(3-Chloro-5-fluorophenyl)-1H-1,2,3-triazol-1-yl)-3,5-dihydroxy-6-(hydroxymethyl)tetrahydro-2H-pyran-2-yl)thio)-N-ethyl-2-(4-hydroxytetrahydro-2H-pyran-4-yl)-N-methylacetamide], the IC50 worked out at 0.08 µM in test [1] (setting [2]) and 0.13 µM at human Gal-1 (hGal-1).

As for `O=C([C@@H](S[C@@H]1O[C@H](CO)[C@H](O)[C@H](n2cc(-c3cc(F)c(F)c(F)c3)nn2)[C@H]1O)C1(O)CCOCC1)N1CCc2ccccc21` [Example 2.41.209S., (S)-2-(((2S,3R,4S,5R,6R)-3,5-Dihydroxy-6-(hydroxymethyl)-4-(4-(3,4,5-trifluorophenyl)-1H-1,2,3-triazol-1-yl)tetrahydro-2H-pyran-2-yl)thio)-2-(4-hydroxytetrahydro-2H-pyran-4-yl)-1-(indolin-1-yl)ethan-1-one], the values for the IC50 (in test [1] (setting [3]); at human Gal-1 (hGal-1)) were 0.1 µM and 0.17 µM, respectively.

As for `CN(C(=O)[C@@H](S[C@@H]1O[C@H](CO)[C@H](O)[C@H](n2cc(-c3cc(F)c(F)c(F)c3)nn2)[C@H]1O)C1(O)CCOCC1)c1ccccc1` [Example 2.41.231S.], the IC50 came out at 0.07 µM in test [1] (Table 9, hGal-3, read-out: IC50 (Gal-3 inhibition)) and 0.05 µM on human Gal-1 (hGal-1).

For the compound `CO[C@@H]1[C@@H](n2cc(-c3cc(F)c(F)c(F)c3)nn2)[C@@H](O)[C@@H](CO)O[C@H]1SC(C(=O)N(C)C(C)C)C1(O)CCC(F)(F)CC1` (stereo partly drawn) [Example 2.44.242.I., 2-(4,4-Difluoro-1-hydroxycyclohexyl)-2-(((2S,3R,4S,5R,6R)-5-hydroxy-6-(hydroxymethyl)-3-methoxy-4-(4-(3,4,5-trifluorophenyl)-1H-1,2,3-triazol-1-yl)tetrahydro-2H-pyran-2-yl)thio)-N-isopropyl-N-methylacetamide], the IC50 in test [1] (Table 12, hGal-3, read-out: IC50 (Gal-3 inhibition)) turned out to be 0.08 µM; at human Gal-1 (hGal-1) it was 0.11 µM.

`CCN(C)C(=O)[C@@H](S[C@@H]1O[C@H](CO)[C@H](O)[C@H](n2cc(-c3cc(F)c(F)c(F)c3)nn2)[C@H]1O)C1(O)CCN(C(=O)NC2CC2)CC1` [Example 2.49.203S., (S)-N-Cyclopropyl-4-(1-(((2S,3R,4S,5R,6R)-3,5-dihydroxy-6-(hydroxymethyl)-4-(4-(3,4,5-trifluorophenyl)-1H-1,2,3-triazol-1-yl)tetrahydro-2H-pyran-2-yl)thio)-2-(ethyl(methyl)amino)-2-oxoethyl)-4-hydroxypiperidine-1-carboxamide]: the IC50 came out at 0.04 µM in test [1] (Table 8, hGal-3, read-out: IC50 (Gal-3 inhibition)) and 0.06 µM on human Gal-1 (hGal-1).

Take `CCN(C)C(=O)C(S[C@@H]1O[C@H](CO)[C@H](O)[C@H](n2cc(-c3ccc(F)c(F)c3)nn2)[C@H]1O)C1(O)CCOCC1` (stereo partly drawn) [Example 16.41.203., 2-(((2S,3R,4S,5R,6R)-4-(4-(3,4-Difluorophenyl)-1H-1,2,3-triazol-1-yl)-3,5-dihydroxy-6-(hydroxymethyl)tetrahydro-2H-pyran-2-yl)thio)-N-ethyl-2-(4-hydroxytetrahydro-2H-pyran-4-yl)-N-methylacetamide]: the IC50 in test [1] (setting [2]) was 0.06 µM; at human Gal-1 (hGal-1) it was 0.13 µM.

In the case of `CN(C(=O)C(S[C@@H]1O[C@H](CO)[C@H](O)[C@H](n2cc(-c3cc(F)c(F)c(F)c3)nn2)[C@H]1O)C1(O)CCOCC1)C1CCC1` (stereo partly drawn) [Example 2.41.220.], the IC50 in test [1] (Table 10, hGal-3, read-out: IC50 (Gal-3 inhibition)) came out at 0.05 µM; at human Gal-1 (hGal-1), 0.03 µM.

`O=C(C(S[C@@H]1O[C@H](CO)[C@H](O)[C@H](n2cc(-c3cc(F)c(F)c(F)c3)nn2)[C@H]1O)C1(O)CCOCC1)N1CCCC1` (stereo partly drawn) [Example 2.41.211., 2-(((2S,3R,4S,5R,6R)-3,5-Dihydroxy-6-(hydroxymethyl)-4-(4-(3,4,5-trifluorophenyl)-1H-1,2,3-triazol-1-yl)tetrahydro-2H-pyran-2-yl)thio)-2-(4-hydroxytetrahydro-2H-pyran-4-yl)-1-(pyrrolidin-1-yl)ethan-1-one]: the IC50 in test [1] (setting [3]) amounted to 0.13 µM; on human Gal-1 (hGal-1), 0.33 µM.
